Legend:
[1] = molecular target: T1, rat SK2 (Rattus norvegicus, UniProt P70604); test: Whole-cell patch-clamp of SK2 currents in CHO cells; type: cell-based; conditions: 20 μM
T1 construct: expressed in transfected cells; host or cells: CHO cells
Method: Constructs: For CHO cell transfection, the following were cloned: human SK1, rat SK2, human SK3, and rat calmodulin into the pcDNA3 vector, human SK4 into pEGFP-C1 vector, and PIP4,5-kinase into an IRES-dsRed plasmid. The mutations were introduced using the PCR-based QuikChange™ site-directed mutagenesis (Stratagene®) and were verified by full sequencing of the entire plasmid vector.
Cell Culture and Transfection: Chinese hamster ovary (CHO) cells were grown in Dulbecco's modified Eagle's medium supplemented with 2 millimolar (mM) glutamine, 10% fetal calf serum, and antibiotics. In brief, 40,000 cells seeded on poly-L-lysine-coated glass coverslips (13 millimeter (mm) in diameter) in a 24-multiwell plate were transfected with 0.5 microgram (μg) pEGFP-SK4/0.5 μg mutant SK4, 1.2 μg dsRed-PIP4,5-kinase or with 1 μg SK1/SK2/SK3 together with pIRES-CD8 (0.3 μg) as a marker for transfection. […]
Whole-cell patch-clamp recording: Voltage-clamp recordings were performed using the whole-cell configuration of the patch-clamp technique. […] The intracellular pipette solution contained 130 mM KCl, 5 mM EGTA, 10 mM HEPES, pH 7.3 (adjusted with KOH), and CaCl2 calculated for a final concentration of 1 μM free-Ca^2+, by MAXCHELATOR (WEBMAXC STANDARD) software, with sucrose added to adjust osmolarity to 290 mosM. […]

[2] = system: isolated guinea pig hearts; test: Langendorff perfused isolated guinea pig hearts; conditions: 10 μM
Method: Animals: Adult male Sprague-Dawley rats (n=56, 200-250 grams) and Guinea pigs (n=19, 400-700 grams) obtained from Envigo Laboratories (Jerusalem, Israel) were bred and grown in Ben-Gurion University of the Negev, Israel. Experiments in rats and guinea pigs were approved by the institutional ethics committee of Ben-Gurion University of the Negev, Israel (Protocol No. IL-24-05-2020(D) and were carried out in strict accordance with the Guide for the Care and Use of Laboratory Animals of the National Institutes of Health. The animals were kept under standardized conditions: 12:12 light: dark cycles at 20-24° C. and 30-70% relative humidity.
Perfused isolated hearts—Langendorff method: The isolated heart experiment setup was performed as described in Etzion et al., Am J Physiol Heart Circ Physiol (2008) 295, H1460-1469; and Mor et al., J Pharmacol Exp Ther (2013) 344, 59-67.]. Briefly, each animal was anesthetized with 2% isoflurane and an intraperitoneal (IP) injection of pentobarbital (60 mg/kg), followed by IP injection of Heparin (1000 U/kg). The heart was rapidly excised and placed into ice-cold Tyrode's buffer solution (consisted of 140 mM NaCl, 5.4 mM KCl, 0.5 mM MgCl2, 2.5 mM CaCl2, 0.39 mM NaH2PO4, 10 mM HEPES and 11 mM glucose, and titrated to pH 7.4 with NaOH). The aorta was cannulated and connected to a pre-heated (37° C.) and oxygenated perfusion system with Tyrode's solution while perfusion pressure was maintained at about 70 mmHg throughout the experiment. Prior to the experiment, the heart was left in Tyrode's solution to stabilize for 20 minutes for hemodynamic measurements, the left atrial appendage was excised, and a collapsed latex balloon was inserted into the left ventricle (LV) through the mitral valve. Once positioned, the balloon was filled with double distilled water reaching an end-diastolic pressure of 10-15 mmHg. Coronary perfusion pressure and LV pressure were recorded by a pressure amplifier (ETH-256C amplifier and B-100 probes, iWorx, NH, USA). Electrophysiological signals were recorded from the high right atrium (HRA) via a miniature quadripolar hook electrode (for simultaneous pacing and recording) and from the LV via a bipolar hook electrode. Electrical signals were filtered (1-2 kHz) and recorded by two voltage amplifiers (Model 3000, A-M Systems, Carlsberg, WA, USA). Signals were interfaced with a PC using an A/D converter (PCI-6024E, National Instruments, Austin TX, USA) and a custom-designed program developed with LabVIEW programing language (National Instruments, Austin, TX, USA) to control signal acquisition, data saving and off-line analysis. Measured physiological parameters during the experiment included perfusion flow (ml/minute) as a marker for coronary perfusion pressure, LV developed pressure, dP/dt±(representing the rate of rise of left ventricular pressure during isovolumetric contraction as a marker for LV contractility), heart rate, PR, and RR intervals. Tram-34 and BA6b9 were applied for a 20-minutes incubation period and physiological parameters were recorded.
Effective refractory period measurements: Using both custom-made quadripolar electrode inserted on the HRA and two bipolar electrodes (recording and pacing) on the LV, allowed measurement of the effective refractory period (ERP) at the atrial level (atrial effective refractory period, AERP), atrioventricular level (AVERP), and ventricular level (VERP). For ERP measurement, a programmed S1S2 stimulation protocol was performed using double diastolic threshold intensity. The protocol consisted of ten S1-S2 intervals of 150 milliseconds (ms) followed by an S1-S2 interval that was reduced by 1 ms each time, until pacing capture failed three consecutive times. AERP, AVERP, and VERP were measured and recorded prior and after exposure to the used inhibitor, either Tram-34 or BA6b9.

Compound: CCCCCCCn1c(=O)oc2ccccc21 [BA6b9, 3-heptylbenzo[d]oxazol-2(3H)-one]
- SK2 activity in comparison with control [1]: 134%
- SK2 drug-to-control current ratio [1]: 1.34
- AERP (effect) [2]: significantly prolonged
- AVERP (effect) [2]: significantly prolonged
- PR interval (effect) [2]: increasing PR interval
- VERP (effect) [2]: significantly prolonged
- action potential activation current (atrial and ventricular pacing thresholds) [2]: Neither Tram-34 nor BA6b9 affected
- coronary flow (perfusion flow velocity) [2]: no effect
- heart rate (effect) [2]: decreased heart rate

From patent US20240366571A1, “MODULATORS OF SK4 POTASSIUM CHANNEL AND USES THEREOF” (Ramot at Tel-Aviv University Ltd., priority 2022, published 2024)
